Tests used:
[1] = Hygroscopicity by dynamic vapor sorption (DVS); assay type: physicochemical; conditions: 25° C. and 80% RH; listed as crystal form A of the compound represented by formula (I)
Method: 1.4 Dynamic Vapor Sorption (DVS) Method of the Present Disclosure
Instrument model: SMS DVS Advantage dynamic vapor sorption instrument
Detection conditions: 10-20 mg of sample was placed in a DVS sample tray for testing.
Detailed DVS parameters were as follows:
Equilibrium: dm/dt=0.01%/min: (shortest: 10 min, longest: 180 min)
Drying: drying at 0% RH for 120 min
RH (%) test gradient: 10%
RH (%) test gradient range: 0%-90%-0%
Hygroscopicity evaluation is classified as follows:
20 mg of the crystal form A of the compound represented by formula (I) was placed in the DVS sample tray for testing.

RAW264.7 = assay: Akt phosphorylation inhibition in RAW264.7 cells (high expression of PI3Kγ); assay type: cell-based; conditions: RAW264.7 cell line with high expression of PI3Kγ
[2] = system: HR+/HER2+ human breast cancer BT-474 (PIK3CA amplified); assay: In vivo pharmacodynamic study, BT-474 nude mouse subcutaneous xenograft tumor model; parameters: species or system BALB/c nude mice
Method: The phenotype of human BT-474 breast cancer cells is HR+/HER2+, and it has PIK3CA amplification. This experiment evaluated the efficacy of the crystal form A of the compound represented by formula (I) in a human breast cancer xenograft tumor model, using BYL-719 as a reference.
Cell culture: Human breast cancer BT474 cells were cultured in vitro in a single layer, the culture condition was Hybri-Care medium with 10% fetal bovine serum and the cells were incubated in 5% CO2 at 37° C. Digestion and passage treatment with trypsin-EDTA was carried out twice a week. When the cell saturation was 80%-90% and the number reached the requirement, the cells were collected, counted and inoculated.
Animals: BALB/c nude mice, female, 6-8 weeks old, weighing 18-20 g. A total of 85 animals were required, and provided by Shanghai Bikai experimental animal Co., Ltd.
(§1) Tumor inoculation: Estrogen tablets (0.36 mg/tablet) were subcutaneously inoculated on the left back of each mouse, three days later, 0.2 mL (10×10^6 cells) of BT474 cells (with matrigel in a volume ratio of 1:1) were subcutaneously inoculated on the right back of each mouse, group administration was started when the average tumor volume reached 150 mm^3−200 mm^3.
(§2) Tumor-bearing mice in each administration group had good tolerance to the tested compounds.

[3] = system: human breast cancer T47D (PIK3CA H1047R mutation); assay: In vivo pharmacodynamic study, T47D nude mouse subcutaneous xenograft tumor model; parameters: species or system BALB/c nude mice
Method: The phenotype of human T47D breast cancer cells is HR+/HER2−, and it carries PIK3CA H1047R mutation. This experiment evaluated the efficacy of the crystal form A of the compound represented by formula (I) in a human breast cancer xenograft tumor model.
Cell culture: Human breast cancer T47D cells were cultured in vitro in a single layer, the culture condition was RPMI-1640 medium with 0.2 U/mL bovine insulin and 10% fetal bovine serum, and the cells were incubated in 5% CO2 at 37° C. Digestion and passage treatment with trypsin-EDTA was carried out twice a week. When the cell saturation was 80%-90% and the number reached the requirement, the cells were collected, counted and inoculated.
Animals: BALB/c nude mice, female, 6-8 weeks old, weighing 18-20 g. A total of 75 animals were required, and provided by Shanghai Bikai experimental animal Co., Ltd or other qualified suppliers.
as §1, with “(0.18” for “(0.36”, “mouse. Three” for “mouse, three”, “T47D” for “BT474”, “mm^3-200” for “mm^3−200”
as §2

[4] = 10 mg/kg, oral once a day for 20 days
[5] = 10 mg/kg, oral once a day for 20 days, listed as crystal form A of the compound represented by formula (I)
[6] = 20 mg/kg, oral once a day for 20 days
[7] = 20 mg/kg, oral once a day for 20 days, listed as crystal form A of the compound represented by formula (I)
[8] = 40 mg/kg, oral once a day for 20 days
[9] = 40 mg/kg, oral once a day for 20 days, listed as crystal form A of the compound represented by formula (I)
[10] = 10 mg/kg, oral once a day for 42 days
[11] = 10 mg/kg, oral once a day for 42 days, listed as crystal form A of the compound represented by formula (I)
[12] = 20 mg/kg, oral once a day for 42 days
[13] = 20 mg/kg, oral once a day for 42 days, listed as crystal form A of the compound represented by formula (I)
[14] = 40 mg/kg, oral once a day for 42 days
[15] = 40 mg/kg, oral once a day for 42 days, listed as crystal form A of the compound represented by formula (I)

CNC(=O)[C@H](C)Cn1cnc2ccc(-c3cnc(OC)c(NS(=O)(=O)c4ccc(F)cc4F)c3)cc2c1=O
Classification for hygroscopicity [1]: slightly hygroscopic (2% > ΔW% ≥ 0.2%) | ΔW, hygroscopical weight gain [1]: 0.885% | Selectivity PI3Kα over PI3Kγ, Akt phosphorylation inhibitory activity in cells (RAW264.7): > 694 times | Anti-tumor effect (in words) ([2]; 10 mg/kg group): strong anti-tumor effect | T/C % [2, 4]: 50.18% | TGI % [2, 4]: 65.34% | T/C % [2, 5]: 50.18% | TGI % [2, 5]: 65.34% | Anti-tumor effect (in words) ([2]; 20 mg/kg group): strong anti-tumor effect | T/C % [2, 6]: 37.92% | TGI % [2, 6]: 80.21% | T/C % [2, 7]: 37.92% | TGI % [2, 7]: 80.21% | Anti-tumor effect (in words) ([2]; 40 mg/kg group): significant anti-tumor effects | T/C % [2, 8]: 21.16% | TGI % [2, 8]: 105.65% | T/C % [2, 9]: 21.16% | TGI % [2, 9]: 105.65% | Dose to play the effect ([2]; oral once a day for 20 days): 10 mg/kg | Anti-tumor effect (in words) ([3]; 10 mg/kg group): strong anti-tumor effect | T/C % [3, 10]: 50.40% | TGI % [3, 10]: 67.58% | T/C % [3, 11]: 50.40% | TGI % [3, 11]: 67.58% | Anti-tumor effect (in words) ([3]; 20 mg/kg group): strong anti-tumor effect | T/C % [3, 12]: 44.70% | TGI % [3, 12]: 72.56% | T/C % [3, 13]: 44.70% | TGI % [3, 13]: 72.56% | Anti-tumor effect (in words) ([3]; 40 mg/kg group): significant anti-tumor effects | T/C % [3, 14]: 37.91% | TGI % [3, 14]: 84.71% | T/C % [3, 15]: 37.91% | TGI % [3, 15]: 84.71% | Dose to play the effect ([3]; oral once a day for 42 days): 10 mg/kg

Source: US20220213060A1, “Crystal Form of Quinazolinone Compound and Preparation Method Therefor” (Luoxin Healthcare Science and Technology Development …, priority 2019, published 2022)
